PubChem BioAssay (NCI)
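96-well plates; 48 h exposure; 5 concentrations. Endpoints by linear interpolation between flanking doses. Not reached: highest tested concentration assigned. TGI denotes the concentration required for complete inhibition of growth.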

How the values were obtained:
Assay in all cases: DTP human tumour cell line panel, 48 h
HOP-62 NSCLC = system: HOP-62 NSCLC
SK-MEL-2 melanoma = system: SK-MEL-2 melanoma
NCI/ADR-RES ovarian = system: NCI/ADR-RES ovarian
SF-268 CNS = system: SF-268 CNS
MDA-MB-435 = system: MDA-MB-435
CCRF-CEM leukemia = system: CCRF-CEM leukemia
MALME-3M melanoma = system: MALME-3M melanoma
RXF 393 renal = system: RXF 393 renal
SNB-75 CNS = system: SNB-75 CNS
786-0 renal = system: 786-0 renal
M14 melanoma = system: M14 melanoma
IGROV1 ovarian = system: IGROV1 ovarian
NCI-H226 lung = system: NCI-H226 lung
OVCAR-8 ovarian = system: OVCAR-8 ovarian
A498 renal = system: A498 renal
SF-295 CNS = system: SF-295 CNS
K-562 leukemia = system: K-562 leukemia
LOX IMVI melanoma = system: LOX IMVI melanoma
HT29 colon = system: HT29 colon
ACHN renal = system: ACHN renal
MCF7 breast = system: MCF7 breast
SK-OV-3 ovarian = system: SK-OV-3 ovarian
HCT-116 colon = system: HCT-116 colon
HL-60(TB) leukemia = system: HL-60(TB) leukemia
NCI-H460 lung = system: NCI-H460 lung
TK-10 renal = system: TK-10 renal
HS 578T breast = system: HS 578T breast
EKVX NSCLC = system: EKVX NSCLC
RPMI-8226 leukemia = system: RPMI-8226 leukemia
SW-620 colon = system: SW-620 colon
KM12 colon = system: KM12 colon
OVCAR-3 ovarian = system: OVCAR-3 ovarian
HOP-92 NSCLC = system: HOP-92 NSCLC
UO-31 renal = system: UO-31 renal
T-47D breast = system: T-47D breast
MOLT-4 leukemia = system: MOLT-4 leukemia
SF-539 CNS = system: SF-539 CNS
MDA-N = system: MDA-N
SK-MEL-5 melanoma = system: SK-MEL-5 melanoma
PC-3 prostate = system: PC-3 prostate
HCC-2998 colon = system: HCC-2998 colon
A549 NSCLC = system: A549 NSCLC
SNB-19 CNS = system: SNB-19 CNS
SN12C renal = system: SN12C renal
NCI-H23 lung = system: NCI-H23 lung
SK-MEL-28 melanoma = system: SK-MEL-28 melanoma
OVCAR-5 ovarian = system: OVCAR-5 ovarian
UACC-62 melanoma = system: UACC-62 melanoma
SR leukemia = system: SR leukemia
U251 CNS = system: U251 CNS
NCI-H522 lung = system: NCI-H522 lung
OVCAR-4 ovarian = system: OVCAR-4 ovarian
COLO 205 colon = system: COLO 205 colon
BT-549 breast = system: BT-549 breast
DU-145 prostate = system: DU-145 prostate
CAKI-1 renal = system: CAKI-1 renal
HCT-15 colon = system: HCT-15 colon
UACC-257 melanoma = system: UACC-257 melanoma
MDA-MB-231 breast = system: MDA-MB-231 breast

COc1oc(C(=O)NC2CCCCC2)c(-c2ccc(Cl)cc2)c1S(=O)(=O)c1ccccc1
TGI (HOP-62 NSCLC): 22 µM
TGI (SK-MEL-2 melanoma): 39 µM
TGI (NCI/ADR-RES ovarian): 8.42 µM
TGI (SF-268 CNS): 10.8 µM
TGI (MDA-MB-435): 28.9 µM
TGI (CCRF-CEM leukemia): 4.66 µM
TGI (MALME-3M melanoma): > 45.9 µM
TGI (RXF 393 renal): 9.76 µM
TGI (SNB-75 CNS): > 100 µM
TGI (786-0 renal): 3.59 µM
TGI (M14 melanoma): > 100 µM
TGI (IGROV1 ovarian): 3.35 µM
TGI (NCI-H226 lung): > 100 µM
TGI (OVCAR-8 ovarian): > 19.8 µM
TGI (A498 renal): 4.08 µM
TGI (SF-295 CNS): > 62 µM
TGI (K-562 leukemia): > 52.4 µM
TGI (LOX IMVI melanoma): 7.54 µM
TGI (HT29 colon): 5.42 µM
TGI (ACHN renal): > 100 µM
TGI (MCF7 breast): > 100 µM
TGI (SK-OV-3 ovarian): > 100 µM
TGI (HCT-116 colon): > 100 µM
TGI (HL-60(TB) leukemia): 6.4 µM
TGI (NCI-H460 lung): > 36.1 µM
TGI (TK-10 renal): > 89.1 µM
TGI (HS 578T breast): 68.6 µM
TGI (EKVX NSCLC): > 30.9 µM
TGI (RPMI-8226 leukemia): 5.59 µM
TGI (SW-620 colon): > 100 µM
TGI (KM12 colon): 25.2 µM
TGI (OVCAR-3 ovarian): 3.59 µM
TGI (HOP-92 NSCLC): 3.06 µM
TGI (UO-31 renal): 3.22 µM
TGI (T-47D breast): > 100 µM
TGI (MOLT-4 leukemia): > 75.2 µM
TGI (SF-539 CNS): 14.4 µM
TGI (MDA-N): > 100 µM
TGI (SK-MEL-5 melanoma): > 100 µM
TGI (PC-3 prostate): > 41.3 µM
TGI (HCC-2998 colon): > 100 µM
TGI (A549 NSCLC): > 100 µM
TGI (SNB-19 CNS): > 100 µM
TGI (SN12C renal): > 46.2 µM
TGI (NCI-H23 lung): > 25.5 µM
TGI (SK-MEL-28 melanoma): > 100 µM
TGI (OVCAR-5 ovarian): > 100 µM
TGI (UACC-62 melanoma): 72.2 µM
TGI (SR leukemia): > 25.3 µM
TGI (U251 CNS): 7.61 µM
TGI (NCI-H522 lung): 2.94 µM
TGI (OVCAR-4 ovarian): 3.51 µM
TGI (COLO 205 colon): 44.9 µM
TGI (BT-549 breast): > 22.1 µM
TGI (DU-145 prostate): > 74.4 µM
TGI (CAKI-1 renal): 10.7 µM
TGI (HCT-15 colon): > 100 µM

[N-]=[N+]=NC1=C(C(=O)c2ccccc2)C(=O)c2cccc3cccc1c23
TGI (HOP-62 NSCLC): 62 µM
TGI (SK-MEL-2 melanoma): 69.6 µM
TGI (NCI/ADR-RES ovarian): > 100 µM
TGI (SF-268 CNS): 36.2 µM
TGI (MDA-MB-435): > 100 µM
TGI (CCRF-CEM leukemia): > 100 µM
TGI (MALME-3M melanoma): > 100 µM
TGI (RXF 393 renal): 71 µM
TGI (SNB-75 CNS): 33.4 µM
TGI (786-0 renal): > 100 µM
TGI (M14 melanoma): > 100 µM
TGI (IGROV1 ovarian): 88.5 µM
TGI (NCI-H226 lung): > 100 µM
TGI (OVCAR-8 ovarian): > 100 µM
TGI (SF-295 CNS): > 100 µM
TGI (K-562 leukemia): > 100 µM
TGI (HT29 colon): > 100 µM
TGI (ACHN renal): > 100 µM
TGI (MCF7 breast): > 100 µM
TGI (SK-OV-3 ovarian): > 100 µM
TGI (HCT-116 colon): > 100 µM
TGI (TK-10 renal): > 100 µM
TGI (HS 578T breast): 61.4 µM
TGI (EKVX NSCLC): 89.2 µM
TGI (RPMI-8226 leukemia): > 100 µM
TGI (SW-620 colon): > 100 µM
TGI (KM12 colon): > 100 µM
TGI (OVCAR-3 ovarian): > 100 µM
TGI (UACC-257 melanoma): > 100 µM
TGI (HOP-92 NSCLC): > 100 µM
TGI (UO-31 renal): > 100 µM
TGI (T-47D breast): > 100 µM
TGI (MOLT-4 leukemia): > 100 µM
TGI (SF-539 CNS): > 100 µM
TGI (MDA-N): > 100 µM
TGI (SK-MEL-5 melanoma): > 100 µM
TGI (PC-3 prostate): > 100 µM
TGI (A549 NSCLC): > 100 µM
TGI (SNB-19 CNS): > 100 µM
TGI (SN12C renal): > 100 µM
TGI (NCI-H23 lung): > 100 µM
TGI (MDA-MB-231 breast): 87.2 µM
TGI (SK-MEL-28 melanoma): > 100 µM
TGI (OVCAR-5 ovarian): > 100 µM
TGI (UACC-62 melanoma): > 100 µM
TGI (SR leukemia): 77.6 µM
TGI (U251 CNS): > 100 µM
TGI (NCI-H522 lung): 81.5 µM
TGI (OVCAR-4 ovarian): > 100 µM
TGI (COLO 205 colon): > 100 µM
TGI (BT-549 breast): > 100 µM
TGI (CAKI-1 renal): > 100 µM

O=[N+]([O-])c1ccc(N/N=C2\C=CCCC2)c([N+](=O)[O-])c1
TGI (HOP-62 NSCLC): > 100 µM
TGI (SK-MEL-2 melanoma): > 100 µM
TGI (NCI/ADR-RES ovarian): > 100 µM
TGI (SF-268 CNS): > 100 µM
TGI (MDA-MB-435): > 100 µM
TGI (CCRF-CEM leukemia): > 100 µM
TGI (MALME-3M melanoma): > 100 µM
TGI (SNB-75 CNS): 73 µM
TGI (786-0 renal): > 100 µM
TGI (M14 melanoma): > 100 µM
TGI (IGROV1 ovarian): > 100 µM
TGI (NCI-H226 lung): > 100 µM
TGI (OVCAR-8 ovarian): > 100 µM
TGI (SF-295 CNS): > 100 µM
TGI (K-562 leukemia): > 100 µM
TGI (LOX IMVI melanoma): > 100 µM
TGI (HT29 colon): > 100 µM
TGI (ACHN renal): > 100 µM
TGI (MCF7 breast): > 100 µM
TGI (SK-OV-3 ovarian): > 100 µM
TGI (HCT-116 colon): > 100 µM
TGI (HL-60(TB) leukemia): > 100 µM
TGI (NCI-H460 lung): > 100 µM
TGI (TK-10 renal): > 100 µM
TGI (HS 578T breast): > 100 µM
TGI (EKVX NSCLC): > 100 µM
TGI (RPMI-8226 leukemia): > 100 µM
TGI (SW-620 colon): > 100 µM
TGI (KM12 colon): > 100 µM
TGI (OVCAR-3 ovarian): > 100 µM
TGI (UACC-257 melanoma): > 100 µM
TGI (HOP-92 NSCLC): > 100 µM
TGI (UO-31 renal): > 100 µM
TGI (T-47D breast): > 100 µM
TGI (MDA-N): > 100 µM
TGI (SK-MEL-5 melanoma): > 100 µM
TGI (PC-3 prostate): > 100 µM
TGI (A549 NSCLC): > 100 µM
TGI (SNB-19 CNS): > 100 µM
TGI (SN12C renal): > 100 µM
TGI (NCI-H23 lung): > 100 µM
TGI (SK-MEL-28 melanoma): > 100 µM
TGI (OVCAR-5 ovarian): > 100 µM
TGI (UACC-62 melanoma): > 100 µM
TGI (SR leukemia): > 100 µM
TGI (U251 CNS): > 100 µM
TGI (NCI-H522 lung): > 100 µM
TGI (OVCAR-4 ovarian): > 100 µM
TGI (COLO 205 colon): > 100 µM
TGI (BT-549 breast): > 100 µM
TGI (DU-145 prostate): > 100 µM
TGI (CAKI-1 renal): > 100 µM
TGI (HCT-15 colon): > 100 µM
